Molecular target: T1, Equilibrative nucleoside transporter 1 (Homo sapiens, UniProt Q99808)
T1 sequence (Q99808 whole entry): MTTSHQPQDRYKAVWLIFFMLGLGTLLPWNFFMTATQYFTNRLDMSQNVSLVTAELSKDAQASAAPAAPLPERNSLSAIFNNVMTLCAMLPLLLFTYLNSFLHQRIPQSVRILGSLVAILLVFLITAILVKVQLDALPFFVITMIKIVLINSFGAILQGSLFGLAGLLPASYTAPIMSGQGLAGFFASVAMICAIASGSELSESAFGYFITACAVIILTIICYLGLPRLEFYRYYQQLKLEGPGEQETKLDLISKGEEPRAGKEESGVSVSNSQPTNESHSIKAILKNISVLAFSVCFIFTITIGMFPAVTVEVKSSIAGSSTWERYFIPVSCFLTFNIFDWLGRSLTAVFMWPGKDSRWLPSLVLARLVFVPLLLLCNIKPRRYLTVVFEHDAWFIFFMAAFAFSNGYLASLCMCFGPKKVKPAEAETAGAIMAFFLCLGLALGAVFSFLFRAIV
Assay: Inhibition of the equilibrative nucleoside transporter (ENT1, SLC29A1) as assessed by GPCR-mediated changes in cell morphology using the impedance-based transporter activity through receptor activation (TRACT) assay (PubChem AID: 1745861)
Assay type: functional, U2OS

IC50: 5.3 nM
SMILES: NC(=O)C1CN(CCCCC(c2ccc(F)cc2)c2ccc(F)cc2)CCN1CC(=O)Nc1c(Cl)cc(N)cc1Cl (stereo unspecified) [DRAFLAZINE]

Reference: ChEMBL document CHEMBL5209562, “Label-free detection of transporter activity via GPCR signalling in living cells: A case for SLC29A1, the equilibrative nucleoside transporter 1” (Sci Rep, 2019)
